US6087121A, “Chemiluminescent detection of heme proteins in biological samples” (Mayo Foundation for Medical Education and Research, priority 1999, dated 2000)

Legend:
Myeloperoxidase = molecular target: T1, Myeloperoxidase (Homo sapiens, UniProt P05164); assay: Inhibition of peroxidase activities with PS-1 by methimazole: Myeloperoxidase; format: biochemical; settings: 50 μmol/L methimazole, enzyme 1 μg/mL
T1 sequence (P05164 49-745): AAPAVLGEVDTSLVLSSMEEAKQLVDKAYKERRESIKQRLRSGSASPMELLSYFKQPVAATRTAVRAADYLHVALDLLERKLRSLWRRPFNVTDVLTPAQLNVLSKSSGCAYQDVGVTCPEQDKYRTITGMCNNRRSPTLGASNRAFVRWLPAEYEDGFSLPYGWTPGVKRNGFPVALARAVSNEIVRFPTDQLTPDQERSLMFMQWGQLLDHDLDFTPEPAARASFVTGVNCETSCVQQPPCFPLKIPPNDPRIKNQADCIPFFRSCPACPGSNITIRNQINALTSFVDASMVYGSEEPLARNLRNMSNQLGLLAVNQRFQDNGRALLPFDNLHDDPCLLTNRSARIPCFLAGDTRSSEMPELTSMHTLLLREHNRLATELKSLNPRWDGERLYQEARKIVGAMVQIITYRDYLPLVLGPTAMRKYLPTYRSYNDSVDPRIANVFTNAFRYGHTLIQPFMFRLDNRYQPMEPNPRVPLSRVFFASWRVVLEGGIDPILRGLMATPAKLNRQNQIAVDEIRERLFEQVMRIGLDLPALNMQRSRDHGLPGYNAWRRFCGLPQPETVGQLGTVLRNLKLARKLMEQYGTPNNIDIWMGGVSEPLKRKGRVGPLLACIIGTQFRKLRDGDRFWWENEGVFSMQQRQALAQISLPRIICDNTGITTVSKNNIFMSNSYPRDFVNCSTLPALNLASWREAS
Description: (§1) Urine samples were diluted 1:4 into distilled water to minimize inhibitory effects observed with hyperosmolal urines. Two μL of diluted urine were added to 12×75 mm polystyrene test tube containing 50 μL of the PS-1 solution. The tubes were incubated at 37° C. for 5 minutes. MPO activity was determined by chemiluminescence emission using a Turner TD-20e luminometer maintained at 37° C. Leukocyte counting was performed manually by using a hemacytometer chamber (Kova Glasstic slide, Hycor, Irvine, Calif.) on each urine sample to determine the number of cells/mL.
(§2) The reactivity of PS-1 with heme proteins was assessed to determine if this substrate had more restricted specificity. Materials and methods were according to the description above.
(§3) Several peroxidases were detected with PS-1 substrate including EPO, MPO, LPO, and TPO. Addition of 50 μmol/L methimazole, an inhibitor of EPO, reduces activities of EPO, TPO and LPO by >90%, while MPO was inhibited by less than about 50% (Table 6). The addition of methimazole to the PS-1 assay allows MPO activity to be detected selectively.

Eosinophil Peroxidase = molecular target: T2, Eosinophil Peroxidase (Homo sapiens, UniProt P11678); assay: Inhibition of peroxidase activities with PS-1 by methimazole: Eosinophil Peroxidase; format: biochemical; settings: 50 μmol/L methimazole, enzyme 1 μg/mL
T2 sequence (P11678 140-715): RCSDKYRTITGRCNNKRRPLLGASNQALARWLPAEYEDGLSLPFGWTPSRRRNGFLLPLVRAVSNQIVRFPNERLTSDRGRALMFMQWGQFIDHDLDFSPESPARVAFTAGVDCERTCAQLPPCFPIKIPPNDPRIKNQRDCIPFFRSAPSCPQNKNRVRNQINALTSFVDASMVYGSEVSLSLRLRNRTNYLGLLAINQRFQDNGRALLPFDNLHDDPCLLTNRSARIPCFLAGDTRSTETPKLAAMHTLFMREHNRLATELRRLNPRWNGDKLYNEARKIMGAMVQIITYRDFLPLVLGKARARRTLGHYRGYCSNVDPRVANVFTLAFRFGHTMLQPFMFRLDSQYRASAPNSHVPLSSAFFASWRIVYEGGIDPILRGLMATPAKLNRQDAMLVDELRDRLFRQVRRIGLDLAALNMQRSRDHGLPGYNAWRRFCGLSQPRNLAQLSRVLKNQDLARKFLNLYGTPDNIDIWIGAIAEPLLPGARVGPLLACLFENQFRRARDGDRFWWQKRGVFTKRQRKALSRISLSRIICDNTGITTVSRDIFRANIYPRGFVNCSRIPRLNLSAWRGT
Description: as §1, §2, §3

Thyroid peroxidase = molecular target: T3, Thyroid peroxidase (Homo sapiens, UniProt P07202); assay: Inhibition of peroxidase activities with PS-1 by methimazole: Thyroid peroxidase; format: biochemical; settings: 50 μmol/L methimazole, enzyme 1 μg/mL
T3 sequence (P07202 19-933): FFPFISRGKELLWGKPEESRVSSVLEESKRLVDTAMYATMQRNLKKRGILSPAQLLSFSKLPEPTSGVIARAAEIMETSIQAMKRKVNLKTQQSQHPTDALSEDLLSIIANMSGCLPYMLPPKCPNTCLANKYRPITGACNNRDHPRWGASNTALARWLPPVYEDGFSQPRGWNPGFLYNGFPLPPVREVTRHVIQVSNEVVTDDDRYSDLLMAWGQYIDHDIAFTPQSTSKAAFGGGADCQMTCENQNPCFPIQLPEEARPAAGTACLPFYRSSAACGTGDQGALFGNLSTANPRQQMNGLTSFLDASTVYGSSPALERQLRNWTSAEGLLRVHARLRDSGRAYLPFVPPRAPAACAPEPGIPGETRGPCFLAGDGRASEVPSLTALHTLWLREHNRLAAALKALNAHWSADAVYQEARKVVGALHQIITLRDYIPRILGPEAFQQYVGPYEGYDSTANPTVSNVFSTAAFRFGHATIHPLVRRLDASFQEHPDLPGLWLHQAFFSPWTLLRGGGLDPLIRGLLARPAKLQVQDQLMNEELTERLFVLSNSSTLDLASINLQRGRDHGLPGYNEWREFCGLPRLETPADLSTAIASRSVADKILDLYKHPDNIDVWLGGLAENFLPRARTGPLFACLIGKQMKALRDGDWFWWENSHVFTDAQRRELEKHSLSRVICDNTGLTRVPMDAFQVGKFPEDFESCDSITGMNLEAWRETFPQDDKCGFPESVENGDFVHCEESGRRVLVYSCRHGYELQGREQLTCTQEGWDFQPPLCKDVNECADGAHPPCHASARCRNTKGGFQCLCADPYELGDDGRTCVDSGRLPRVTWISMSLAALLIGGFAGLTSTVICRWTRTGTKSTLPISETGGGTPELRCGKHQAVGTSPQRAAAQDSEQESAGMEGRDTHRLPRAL
Description: as §1, §2, §3

Lactoperoxidase = Lactoperoxidase (Bos taurus, UniProt P80025); assay: Inhibition of peroxidase activities with PS-1 by methimazole: Lactoperoxidase; format: biochemical; settings: 50 μmol/L methimazole, enzyme 1 μg/mL
Description: as §1, §2, §3

Hemoglobin = Hemoglobin (Homo sapiens, UniProt P68871+P69905); assay: Inhibition of peroxidase activities with PS-1 by methimazole: Hemoglobin; format: biochemical; settings: 50 μmol/L methimazole, protein 1 μg/mL
Hemoglobin, sequence (P69905 whole entry): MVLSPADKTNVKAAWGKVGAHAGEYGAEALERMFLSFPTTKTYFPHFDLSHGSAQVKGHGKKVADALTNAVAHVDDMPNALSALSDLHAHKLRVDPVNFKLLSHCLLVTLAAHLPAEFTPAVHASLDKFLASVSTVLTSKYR
Hemoglobin, sequence (P68871 whole entry): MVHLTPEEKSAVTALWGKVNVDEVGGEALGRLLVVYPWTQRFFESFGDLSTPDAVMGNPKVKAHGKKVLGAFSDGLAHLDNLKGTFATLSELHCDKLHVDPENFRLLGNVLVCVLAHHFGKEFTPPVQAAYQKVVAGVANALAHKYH
Description: (§4) Centricon ultrafiltration filters were obtained from Amicon (Daven, Mass.). Polystyrene tubes (5.0 mL volume, 75×12 mm) used for the assay were manufactured by Sarstedt (Arlington Heights, Ill.). The chemiluminescent substrate, 7-dimethylamino-naphthalene-1,2-dicarbonic acid-hydrazide (7-DNH) was purchased from Boehringer Mannheim (Indianapolis, Ind.). PS-1 acridan substrate (solution A and solution B) was obtained from Lumigen Inc. (Southfield, Mich.). Dimethyl sulfoxide, cetyltrimethyl-ammonium chloride (CTAC) as a 25% liquid and glycerol were obtained from Aldrich Chemical Company Inc. (Milwaukee, Wis.). Tween-20 and Sodium Chloride were purchased from Fisher Scientific (Fair Lawn, N.J.). […]
(§5) Urine samples were diluted 1:4 into distilled water to minimize inhibitory effects observed with hyperosmolal urines. […] MPO activity was determined by chemiluminescence emission using a Turner TD-20e luminometer maintained at 37° C. […]
(§6) The reactivity of PS-1 with heme proteins was assessed to determine if this substrate had more restricted specificity. […]

Myoglobin = molecular target: T4, Myoglobin (Homo sapiens, UniProt P02144); assay: Inhibition of peroxidase activities with PS-1 by methimazole: Myoglobin; format: biochemical; settings: 50 μmol/L methimazole, protein 1 μg/mL
T4 sequence (P02144 1-154): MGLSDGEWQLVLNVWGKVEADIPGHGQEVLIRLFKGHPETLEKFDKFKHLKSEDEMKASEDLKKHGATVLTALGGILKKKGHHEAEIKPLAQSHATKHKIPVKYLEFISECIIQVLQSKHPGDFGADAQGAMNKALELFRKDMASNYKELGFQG
Description: as §4, §5, §6

Hb = assay: Interference studies in Hb assay (7-DNH chemiluminescence); format: biochemical, human; settings: level producing a signal equivalent to 3 RBC per high power field, fixed Hb concentration
Description: Numerous potential interfering substances, which either enhance or quench the signal generated by cyclic hydrazides, were evaluated. The effects of these potentially interfering substances on light emission was investigated at varying concentrations of the interfering composition. Assays were performed using serial dilutions of the potential interfering compositions in ultrafiltered urine at a fixed concentration of Hb. Comparisons of chemiluminescence emission were made between a reference solution (Hb in ultrafiltered urine) without added interfering compositions and solutions with added interferant.
Generally, the value of 3 RBC per high power field is the normal cutoff point.
Bilirubin and uric acid were examined as a possible negative interfering compositions because of their chemical structure which may quench energy emitted.

MPO = molecular target: T5, MPO (Homo sapiens, UniProt P05164); assay: Effects of potential interfering substances in WBC (MPO, PS-1) assay; format: biochemical
T5 sequence (P05164 49-745): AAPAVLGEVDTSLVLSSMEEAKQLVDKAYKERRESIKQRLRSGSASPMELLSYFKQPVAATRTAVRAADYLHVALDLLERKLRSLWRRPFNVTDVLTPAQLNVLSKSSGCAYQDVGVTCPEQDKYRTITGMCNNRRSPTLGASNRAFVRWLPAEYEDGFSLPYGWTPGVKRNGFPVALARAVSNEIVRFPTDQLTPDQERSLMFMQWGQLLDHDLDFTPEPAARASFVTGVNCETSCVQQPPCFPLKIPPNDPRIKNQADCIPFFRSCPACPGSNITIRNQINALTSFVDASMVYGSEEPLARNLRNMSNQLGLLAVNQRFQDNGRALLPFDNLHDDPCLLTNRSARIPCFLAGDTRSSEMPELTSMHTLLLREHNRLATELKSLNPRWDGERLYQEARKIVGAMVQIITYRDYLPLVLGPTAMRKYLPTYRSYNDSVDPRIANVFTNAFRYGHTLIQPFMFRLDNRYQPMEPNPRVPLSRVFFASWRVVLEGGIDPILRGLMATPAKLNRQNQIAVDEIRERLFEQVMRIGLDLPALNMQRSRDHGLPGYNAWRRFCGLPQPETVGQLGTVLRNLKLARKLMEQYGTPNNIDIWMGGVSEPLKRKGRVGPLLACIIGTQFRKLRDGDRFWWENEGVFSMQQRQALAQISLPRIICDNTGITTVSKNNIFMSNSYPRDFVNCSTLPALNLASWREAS
Description: as §1
Several possible interfering substances were added to urine and tested for inhibitory effects. Several common medications were also tested for potential inhibitory effects. […] Hb at concentrations of >10 μg/mL and Mb at concentrations >2 μg/mL were detected by the PS-1 substrate as the chemiluminescence emission was above the normal urine background. Samples grossly populated with bacteria caused slight inhibition of the MPO activity. Urine samples may contain many epithelial cells, casts, crystals, and numerous artifacts but none of these appear to interfere with the chemiluminescence emission from MPO.

[1] = Activity of hemoglobin and myoglobin (oxidation states of iron, standard curves) with 7-DNH; format: biochemical
Description: The effect of the oxidation state of the heme iron on chemiluminescence emission was evaluated. Equal concentrations of hemoglobin and myoglobin were used. Standard solutions of Hb and Mb at varying concentrations were assayed to evaluate their behavior in the reaction.
With the addition of dithionite to the lysing agent, all of the iron in hemoglobin is immediately converted to the ferrous oxidation which subsequently reacts with H2 O2 and the substrate to form product. OxyHb and oxyMb […] were made by reducing methemoglobin/metmyoglobin with sodium dithionite and then oxygenating each protein by subsequent passage through a Sephadex column. The oxidation of oxyHb/oxyMb to the ferry (Fe^+4) oxidation state was achieved by adding an excess of H2 O2 to the protein solutions.

Cn1cc[nH]c1=S [Methimazole, methimazole]
Chemiluminescence with methimazole (Myeloperoxidase): 130 TLU | inhibition at 50 µM (Myeloperoxidase): 58% | Chemiluminescence with methimazole (Eosinophil Peroxidase): 74 TLU | inhibition at 50 µM (Eosinophil Peroxidase): > 90% | Chemiluminescence with methimazole (Thyroid peroxidase): 0.1 TLU | inhibition at 50 µM (Thyroid peroxidase): > 90% | Chemiluminescence with methimazole (Lactoperoxidase): 0.9 TLU | inhibition at 50 µM (Lactoperoxidase): > 90% | Chemiluminescence with methimazole (Hemoglobin): 0.8 TLU | inhibition at 50 µM (Hemoglobin): 9% | Chemiluminescence with methimazole (Myoglobin): 1.9 TLU | inhibition at 50 µM (Myoglobin): 39%

B1: Myoglobin: Human heart myoglobin obtained from Calbiochem (protein, UniProt P02144 2-154, looked up)
Myoglobin: GLSDGEWQLVLNVWGKVEADIPGHGQEVLIRLFKGHPETLEKFDKFKHLKSEDEMKASEDLKKHGATVLTALGGILKKKGHHEAEIKPLAQSHATKHKIPVKYLEFISECIIQVLQSKHPGDFGADAQGAMNKALELFRKDMASNYKELGFQG
Level of Interference (Hb): > 3.8 µg/mL | Level of Interference (Hb; listed as Mb): above 4 μg/mL | Level of Interference (Hb; listed as myoglobin): approximately 4 μg/mL | interference with PS-1 assay (MPO; Mb <2 μg/mL): did not interfere | Interference (MPO; level giving signal equal to 5 WBC/high power field, highest tested: hemoglobin 250, myoglobin 200 μg/mL): > 2 µg/mL | reactivity of Mb relative to Hb (fold less reactive) ([1]; alternative source of Mb, 7-DNH): about 30 -fold | activity compared to Hb ([1]; up to 4 μg/mL, FIG. 7): very little activity
